Source: ChEMBL document CHEMBL1146902, “Antifungal anthraquinones from Saprosma fragrans” (2006)
≈ marks a conversion by molar mass, not a printed value.

Legend:
Cryptococcus neoformans = experiment: Antifungal activity against Cryptococcus neoformans; format: functional
Sporothrix schenckii = experiment: Antifungal activity against Sporothrix schenckii; format: functional
Candida albicans = experiment: Antifungal activity against Candida albicans; format: functional
Aspergillus fumigatus = experiment: Antifungal activity against Aspergillus fumigatus; format: functional
Trichophyton benhamiae = experiment: Antifungal activity against Trichophyton mentagrophytes; format: functional, Arthroderma benhamiae

| SMILES | MIC (Cryptococcus neoformans) [µg/mL] | MIC (Sporothrix schenckii) [µg/mL] | MIC (Candida albicans) [µg/mL] | MIC (Aspergillus fumigatus) [µg/mL] | MIC (Trichophyton benhamiae) [µg/mL] |
| --- | --- | --- | --- | --- | --- |
| COc1c(C=O)c(O)c(O)c2c1C(=O)c1ccccc1C2=O | 50 (≈ 168 µM) | 25 (≈ 83.8 µM) | 50 (≈ 168 µM) | > 100 | 12.5 (≈ 41.9 µM) |
| Clc1ccccc1C(c1ccccc1)(c1ccccc1)n1ccnc1 [CLOTRIMAZOLE] | 0.09 (≈ 0.261 µM) | 1.56 (≈ 4.52 µM) | 3.1 (≈ 8.99 µM) | 1.56 (≈ 4.52 µM) | 0.39 (≈ 1.13 µM) |
| COc1c(C=O)c(O)cc2c1C(=O)c1ccccc1C2=O [DAMNACANTHAL] | 12.5 (≈ 44.3 µM) | 6.25 (≈ 22.1 µM) | 50 (≈ 177 µM) | 50 (≈ 177 µM) | 1.56 (≈ 5.53 µM) |
